# Measured values published in patent publication US11780893B2, “Kv1.3 blockers” (Zealand Pharma A/S, priority 2019, dated 2023).
# Bridge positions count the residues as written; N and C are the ends. Square brackets hold non-standard residues; d marks the D form. Peptide text beside a SMILES is read from it. Nle = CCCC[C@H](N)C(=O)O
# Assays:
# Kv1.3 = biological target: T1, Kv1.3 (Homo sapiens, UniProt P22001); experiment: cell-based; settings: CHO cells, whole-cell patch clamp; read-out: Potency IC50 (nM) Kv1.3
# T1 construct: expressed in transfected cells; host or cells: Chinese Hamster Ovary (CHO)
# Kv1.2 = biological target: T2, Kv1.2 (Homo sapiens, UniProt P16389); experiment: cell-based; settings: CHO cells, whole-cell patch clamp; read-out: Potency IC50 (nM) Kv1.2
# T2 construct: expressed in transfected cells; host or cells: Chinese Hamster Ovary (CHO)
# in vivo = settings: male, rat, sc, 70 nmol/kg
# [1] = biological target: T3, human Kv1.3 voltage-gated K+ channel (Homo sapiens, UniProt P22001); experiment: cell-based; settings: inhibition of thallium flux, CHO-DUKX cells with human Kv1.3; read-out: IC50
# T3 construct: host or cells: CHO-DUKX
# Kv1.1 = biological target: T4, Kv1.1 (Homo sapiens, UniProt Q09470); experiment: cell-based; settings: for IC50: CHO cells, whole-cell patch clamp, read-out: Potency IC50 (nM) Kv1.1; for Selectivity Kv1.1/Kv1.3: ratio IC50[Kv1.1]/IC50[Kv1.3]
# T4 construct: expressed in transfected cells; host or cells: Chinese Hamster Ovary (CHO)
# Kv1.6 = biological target: T5, Kv1.6 (Homo sapiens, UniProt P17658); experiment: cell-based; settings: for IC50: CHO cells, whole-cell patch clamp, read-out: Potency IC50 (nM) Kv1.6; for Selectivity Kv1.6/Kv1.3: ratio IC50[Kv1.6]/IC50[Kv1.3]
# T5 construct: expressed in transfected cells; host or cells: Chinese Hamster Ovary (CHO)
# Rat whole blood = Rat whole blood (Rattus norvegicus, UniProt P15384)
# Rat whole blood, sequence (P15384 whole entry): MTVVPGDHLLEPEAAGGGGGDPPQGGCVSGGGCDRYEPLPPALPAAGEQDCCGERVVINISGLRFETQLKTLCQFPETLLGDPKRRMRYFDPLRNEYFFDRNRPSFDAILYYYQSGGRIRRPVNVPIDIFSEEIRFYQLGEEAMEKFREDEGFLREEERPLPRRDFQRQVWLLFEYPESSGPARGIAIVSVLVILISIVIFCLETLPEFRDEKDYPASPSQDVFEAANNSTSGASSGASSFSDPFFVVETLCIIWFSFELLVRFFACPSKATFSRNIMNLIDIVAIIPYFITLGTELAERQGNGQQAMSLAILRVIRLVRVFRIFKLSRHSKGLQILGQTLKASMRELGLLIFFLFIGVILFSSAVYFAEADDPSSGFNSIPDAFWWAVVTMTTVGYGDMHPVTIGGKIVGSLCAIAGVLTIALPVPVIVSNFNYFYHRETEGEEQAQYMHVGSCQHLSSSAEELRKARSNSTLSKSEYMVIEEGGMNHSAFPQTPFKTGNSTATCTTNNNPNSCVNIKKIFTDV
# T5 sequence (P17658 whole entry): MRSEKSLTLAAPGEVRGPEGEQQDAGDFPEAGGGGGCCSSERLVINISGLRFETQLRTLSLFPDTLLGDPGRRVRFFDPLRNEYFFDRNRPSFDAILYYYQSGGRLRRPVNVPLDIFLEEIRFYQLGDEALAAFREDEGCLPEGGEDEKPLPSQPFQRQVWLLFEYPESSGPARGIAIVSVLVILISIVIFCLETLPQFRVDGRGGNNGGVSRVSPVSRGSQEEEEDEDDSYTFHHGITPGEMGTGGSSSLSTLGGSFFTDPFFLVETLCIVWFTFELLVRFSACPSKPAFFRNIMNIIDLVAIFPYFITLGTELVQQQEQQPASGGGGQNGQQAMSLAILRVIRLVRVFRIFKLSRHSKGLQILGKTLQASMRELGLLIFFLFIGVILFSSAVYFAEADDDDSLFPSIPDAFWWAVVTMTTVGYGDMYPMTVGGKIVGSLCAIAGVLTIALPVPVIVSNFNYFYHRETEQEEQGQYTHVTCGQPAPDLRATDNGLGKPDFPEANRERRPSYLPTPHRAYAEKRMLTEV
# T4 sequence (Q09470 whole entry): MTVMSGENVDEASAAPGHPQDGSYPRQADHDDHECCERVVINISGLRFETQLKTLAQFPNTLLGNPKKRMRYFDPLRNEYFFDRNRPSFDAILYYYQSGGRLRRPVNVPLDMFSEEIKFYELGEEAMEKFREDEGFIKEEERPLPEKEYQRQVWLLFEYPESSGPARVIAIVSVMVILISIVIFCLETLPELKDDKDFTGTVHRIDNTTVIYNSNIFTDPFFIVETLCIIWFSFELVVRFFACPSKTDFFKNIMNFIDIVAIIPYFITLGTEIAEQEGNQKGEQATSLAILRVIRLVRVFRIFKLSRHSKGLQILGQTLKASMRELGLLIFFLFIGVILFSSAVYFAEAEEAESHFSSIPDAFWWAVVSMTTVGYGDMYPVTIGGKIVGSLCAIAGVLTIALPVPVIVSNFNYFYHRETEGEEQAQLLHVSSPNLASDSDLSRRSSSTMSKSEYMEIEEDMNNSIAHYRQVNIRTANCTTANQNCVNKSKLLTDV
# T1 sequence (P22001 whole entry): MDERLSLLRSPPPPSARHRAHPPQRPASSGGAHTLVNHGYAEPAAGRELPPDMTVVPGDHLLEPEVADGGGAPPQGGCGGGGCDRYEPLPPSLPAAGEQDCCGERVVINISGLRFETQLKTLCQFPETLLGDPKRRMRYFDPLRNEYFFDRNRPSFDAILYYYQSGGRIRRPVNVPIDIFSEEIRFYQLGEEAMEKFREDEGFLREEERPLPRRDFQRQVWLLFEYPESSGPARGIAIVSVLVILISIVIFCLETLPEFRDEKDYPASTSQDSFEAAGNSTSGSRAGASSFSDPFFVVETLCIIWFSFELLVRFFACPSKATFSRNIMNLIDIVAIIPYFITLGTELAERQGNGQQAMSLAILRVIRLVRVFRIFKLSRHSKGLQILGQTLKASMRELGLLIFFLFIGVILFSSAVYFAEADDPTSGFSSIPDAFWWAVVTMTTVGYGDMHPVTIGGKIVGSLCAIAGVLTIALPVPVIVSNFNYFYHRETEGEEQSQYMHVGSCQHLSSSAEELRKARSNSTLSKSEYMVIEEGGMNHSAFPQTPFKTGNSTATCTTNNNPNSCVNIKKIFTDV
# T3 sequence (P22001 whole entry): as above
# T2 sequence (P16389 whole entry): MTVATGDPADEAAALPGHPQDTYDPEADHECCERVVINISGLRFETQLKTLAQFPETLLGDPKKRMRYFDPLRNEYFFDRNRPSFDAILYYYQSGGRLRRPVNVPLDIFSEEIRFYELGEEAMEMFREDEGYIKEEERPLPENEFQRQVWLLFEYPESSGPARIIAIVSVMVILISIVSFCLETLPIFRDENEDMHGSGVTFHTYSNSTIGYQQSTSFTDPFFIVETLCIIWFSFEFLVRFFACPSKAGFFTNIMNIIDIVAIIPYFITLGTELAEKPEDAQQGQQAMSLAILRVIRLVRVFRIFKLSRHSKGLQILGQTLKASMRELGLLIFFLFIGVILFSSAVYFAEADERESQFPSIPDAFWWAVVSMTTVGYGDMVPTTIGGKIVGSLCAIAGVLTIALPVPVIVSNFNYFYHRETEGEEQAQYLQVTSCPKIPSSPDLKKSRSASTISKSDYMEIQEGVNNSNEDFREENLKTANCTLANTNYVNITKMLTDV
SMILES,IC50 (Kv1.3) [nM],IC50 (Kv1.2) [nM],AUC(0-inf) (in vivo) [µM·h],Cmax (in vivo) [nM],half-life (in vivo) [min],IC50 [1] [nM],IC50 (Kv1.1) [nM],Selectivity Kv1.1/Kv1.3 (Kv1.1),IC50 (Kv1.6) [nM],Selectivity Kv1.6/Kv1.3 (Kv1.6),IC50 (Rat whole blood) [nM]
"CC[C@H](C)[C@@H]1NC(=O)[C@H](C)NC(=O)[C@H](CCCCN)NC(=O)[C@H](CC(C)C)NC(=O)[C@@H]2CSSC[C@@H](C(=O)N[C@@H](Cc3ccc(O)cc3)C(=O)N3CCC[C@H]3C(=O)N[C@@H](CCCNC(=N)N)C(=O)O)NC(=O)[C@H](CCCCN)NC(=O)[C@@H]3CSSC[C@H](NC(=O)[C@H](CCC(=O)O)NC(=O)[C@H](C(C)C)NC(=O)[C@H](CO)NC(=O)[C@H](C)NC(=O)[C@H](CO)NC(=O)[C@@H](NC(=O)[C@H](CCCNC(=N)N)NC(=O)[C@H](CCSC)NC(=O)[C@H](CC(=O)O)NC(=O)[C@@H](N)CCSC)CSSC[C@H](NC(=O)[C@H](CCCCN)NC(=O)CNC(=O)[C@H](Cc4ccccc4)NC(=O)[C@H]([C@@H](C)CC)NC(=O)[C@H](CO)NC(=O)CNC1=O)C(=O)N[C@@H](CCSC)C(=O)N[C@@H](CC(N)=O)C(=O)N[C@@H](CCCCN)C(=O)N[C@@H](CCCCN)C(=O)N3)C(=O)N[C@@H](CCCCN)C(=O)N[C@@H](CCC(N)=O)C(=O)N[C@@H](CCCCN)C(=O)N2 [Compound 5] (H-MDMRCSASVECKQKCLKAIGSIFGKCMNKKCKCYPR-OH; disulfide 5-26, 11-31, 15-33)",0.38,285,0.0724,48.4,55.8,0.25,> 3000,>7900,> 3000,>7900,
"CCCC[C@@H]1NC(=O)[C@@H]2CSSC[C@H](NC(=O)[C@H](CCCNC(=N)N)NC(=O)[C@H](CCCC)NC(=O)[C@H](CC(=O)O)NC(=O)[C@@H](N)CCCC)C(=O)N[C@@H](CO)C(=O)N[C@@H](C)C(=O)N[C@@H](CO)C(=O)N[C@@H](C(C)C)C(=O)N[C@@H](CCC(=O)O)C(=O)N[C@H]3CSSC[C@H](NC(=O)[C@H](CCCCN)NC(=O)[C@H](CCCCN)NC(=O)[C@H](CC(N)=O)NC1=O)C(=O)N[C@@H](CCCCN)C(=O)N[C@H](C(=O)N[C@@H](Cc1ccc(O)cc1)C(=O)N1CCC[C@H]1C(=O)N[C@@H](CCCNC(=N)N)C(=O)O)CSSC[C@H](NC(=O)[C@H](CCCCN)NC(=O)[C@H](CCC(N)=O)NC(=O)[C@H](CCCCN)NC3=O)C(=O)N[C@@H](CC(C)C)C(=O)N[C@@H](CCCCN)C(=O)N[C@@H](C)C(=O)N[C@@H]([C@@H](C)CC)C(=O)NCC(=O)N[C@@H](CO)C(=O)N[C@@H]([C@@H](C)CC)C(=O)N[C@@H](Cc1ccccc1)C(=O)NCC(=O)N[C@@H](CCCCN)C(=O)N2 [Compound 94] (H-[Nle]D[Nle]RCSASVECKQKCLKAIGSIFGKC[Nle]NKKCKCYPR-OH; disulfide 5-26, 11-31, 15-33)",0.17,1860,,,,0.16,> 3000,>17800,> 3000,>17800,≤ 1
"CCCC[C@H](NC(=O)[C@@H]1CCCN1)C(=O)N[C@@H](CCC(=O)O)C(=O)N[C@@H](CCCC)C(=O)N[C@@H](CCCNC(=N)N)C(=O)N[C@H]1CSSC[C@@H]2NC(=O)[C@H](CCCCN)NC(=O)CNC(=O)[C@H](Cc3ccccc3)NC(=O)[C@H]([C@@H](C)CC)NC(=O)[C@H](CO)NC(=O)CNC(=O)[C@H]([C@@H](C)CC)NC(=O)[C@H](C)NC(=O)[C@H](C)NC(=O)[C@H](CC(C)C)NC(=O)[C@@H]3CSSC[C@@H](C(=O)N[C@@H](Cc4ccc(O)cc4)C(=O)N4CCC[C@H]4C(=O)N[C@@H](CCCNC(=N)N)C(N)=O)NC(=O)[C@H](CCCCN)NC(=O)[C@H](CSSC[C@H](NC(=O)[C@H](CCC(=O)O)NC(=O)[C@H](C(C)C)NC(=O)[C@H](CO)NC(=O)[C@H](C)NC(=O)[C@H](CO)NC1=O)C(=O)N[C@@H](CCCCN)C(=O)N[C@@H](CCC(N)=O)C(=O)N[C@@H](CCCCN)C(=O)N3)NC(=O)[C@H](CCCCN)NC(=O)[C@H](CCCCN)NC(=O)[C@H](CC(N)=O)NC(=O)[C@H](CCCC)NC2=O [Compound 98] (H-P[Nle]E[Nle]RCSASVECKQKCLAAIGSIFGKC[Nle]NKKCKCYPR-NH2; disulfide 6-27, 12-32, 16-34)",0.18,311,,,,0.11,> 3000,>16200,> 3000,>16200,≤ 1
"CCCC[C@@H]1NC(=O)[C@@H]2CSSC[C@H](NC(C)=O)C(=O)N[C@@H](CO)C(=O)N[C@@H](C)C(=O)N[C@@H](CO)C(=O)N[C@@H](C(C)C)C(=O)N[C@@H](CCC(=O)O)C(=O)N[C@H]3CSSC[C@H](NC(=O)[C@H](CCCCN)NC(=O)[C@H](CCCCN)NC(=O)[C@H](CC(N)=O)NC1=O)C(=O)N[C@@H](CCCCN)C(=O)N[C@H](C(=O)N[C@@H](Cc1ccc(O)cc1)C(=O)N1CCC[C@H]1C(=O)N[C@@H](CCCNC(=N)N)C(N)=O)CSSC[C@H](NC(=O)[C@H](CCCCN)NC(=O)[C@H](CCC(N)=O)NC(=O)[C@H](CCCCN)NC3=O)C(=O)N[C@@H](CC(C)C)C(=O)N[C@@H](CCCCN)C(=O)N[C@@H](C)C(=O)N[C@@H]([C@@H](C)CC)C(=O)NCC(=O)N[C@@H](CO)C(=O)N[C@@H]([C@@H](C)CC)C(=O)N[C@@H](Cc1ccccc1)C(=O)NCC(=O)N[C@@H](CCCCN)C(=O)N2 [Compound 105] (Ac-CSASVECKQKCLKAIGSIFGKC[Nle]NKKCKCYPR-NH2; disulfide 1-22, 7-27, 11-29)",0.24,384,,,,0.16,> 3000,>12400,> 3000,>12400,≤ 1
"CCCC[C@@H]1NC(=O)[C@@H]2CSSC[C@H](NC(=O)[C@@H](N)CCCNC(=N)N)C(=O)N[C@@H](CO)C(=O)N[C@@H](C)C(=O)N[C@@H](CO)C(=O)N[C@@H](C(C)C)C(=O)N[C@@H](CCC(=O)O)C(=O)N[C@H]3CSSC[C@H](NC(=O)[C@H](CCCCN)NC(=O)[C@H](CCCCN)NC(=O)[C@H](CC(N)=O)NC1=O)C(=O)N[C@@H](CCCCN)C(=O)N[C@H](C(=O)N[C@@H](Cc1ccc(O)cc1)C(=O)N1CCC[C@H]1C(=O)N[C@@H](CCCNC(=N)N)C(N)=O)CSSC[C@H](NC(=O)[C@H](CCCCN)NC(=O)[C@H](CCC(N)=O)NC(=O)[C@H](CCCCN)NC3=O)C(=O)N[C@@H](CC(C)C)C(=O)N[C@@H](CCCCN)C(=O)N[C@@H](C)C(=O)N[C@@H]([C@@H](C)CC)C(=O)NCC(=O)N[C@@H](CO)C(=O)N[C@@H]([C@@H](C)CC)C(=O)N[C@@H](Cc1ccccc1)C(=O)NCC(=O)N[C@@H](CCCCN)C(=O)N2 [Compound 106] (H-RCSASVECKQKCLKAIGSIFGKC[Nle]NKKCKCYPR-NH2; disulfide 2-23, 8-28, 12-30)",0.4,280,,,,0.092,> 3000,>7600,1300,,≤ 1
"CCCC[C@@H]1NC(=O)[C@@H]2CSSC[C@H](NC(=O)[C@H](CCCCN)NC(=O)[C@H](CO)NC(C)=O)C(=O)N[C@@H](CO)C(=O)N[C@@H](C)C(=O)N[C@@H](CO)C(=O)N[C@@H](C(C)C)C(=O)N[C@@H](CCC(=O)O)C(=O)N[C@H]3CSSC[C@H](NC(=O)[C@H](CCCCN)NC(=O)[C@H](CCCCN)NC(=O)[C@H](CC(N)=O)NC1=O)C(=O)N[C@@H](CCCCN)C(=O)N[C@H](C(=O)N[C@@H](Cc1ccc(O)cc1)C(=O)N1CCC[C@H]1C(=O)N[C@@H](CCCNC(=N)N)C(N)=O)CSSC[C@H](NC(=O)[C@H](CCCCN)NC(=O)[C@H](CCC(N)=O)NC(=O)[C@H](CCCCN)NC3=O)C(=O)N[C@@H](CC(C)C)C(=O)N[C@@H](CCCCN)C(=O)N[C@@H](C)C(=O)N[C@@H]([C@@H](C)CC)C(=O)NCC(=O)N[C@@H](CO)C(=O)N[C@@H]([C@@H](C)CC)C(=O)N[C@@H](Cc1ccccc1)C(=O)NCC(=O)N[C@@H](CCCCN)C(=O)N2 [Compound 107] (Ac-SKCSASVECKQKCLKAIGSIFGKC[Nle]NKKCKCYPR-NH2; disulfide 3-24, 9-29, 13-31)",1,196,,,,0.084,> 3000,>3000,1450,,≤ 1
"CCCC[C@@H]1NC(=O)[C@@H]2CSSC[C@H](NC(=O)[C@H](CCCNC(=N)N)NC(=O)[C@H](CC(C)C)NC(C)=O)C(=O)N[C@@H](CO)C(=O)N[C@@H](C)C(=O)N[C@@H](CO)C(=O)N[C@@H](C(C)C)C(=O)N[C@@H](CCC(=O)O)C(=O)N[C@H]3CSSC[C@H](NC(=O)[C@H](CCCCN)NC(=O)[C@H](CCCCN)NC(=O)[C@H](CC(N)=O)NC1=O)C(=O)N[C@@H](CCCCN)C(=O)N[C@H](C(=O)N[C@@H](Cc1ccc(O)cc1)C(=O)N1CCC[C@H]1C(=O)N[C@@H](CCCNC(=N)N)C(N)=O)CSSC[C@H](NC(=O)[C@H](CCCCN)NC(=O)[C@H](CCC(N)=O)NC(=O)[C@H](CCCCN)NC3=O)C(=O)N[C@@H](CC(C)C)C(=O)N[C@@H](CCCCN)C(=O)N[C@@H](C)C(=O)N[C@@H]([C@@H](C)CC)C(=O)NCC(=O)N[C@@H](CO)C(=O)N[C@@H]([C@@H](C)CC)C(=O)N[C@@H](Cc1ccccc1)C(=O)NCC(=O)N[C@@H](CCCCN)C(=O)N2 [Compound 108] (Ac-LRCSASVECKQKCLKAIGSIFGKC[Nle]NKKCKCYPR-NH2; disulfide 3-24, 9-29, 13-31)",0.35,122,,,,0.1,> 3000,>8700,2460,,≤ 1
